By IC50 is commonly meant the concentration that gives 50% inhibition.

SMILES strings stand for the structures.

This test deals with human recombinant H-PGDS (Homo sapiens, UniProt O60760). Nature of the test: Fluorescence intensity h-PGDS TBA enzyme assay. To be noted: Examples up to 622 (and 3a, 3b). Type of test: biochemical.
Chain of human recombinant H-PGDS (O60760 whole entry): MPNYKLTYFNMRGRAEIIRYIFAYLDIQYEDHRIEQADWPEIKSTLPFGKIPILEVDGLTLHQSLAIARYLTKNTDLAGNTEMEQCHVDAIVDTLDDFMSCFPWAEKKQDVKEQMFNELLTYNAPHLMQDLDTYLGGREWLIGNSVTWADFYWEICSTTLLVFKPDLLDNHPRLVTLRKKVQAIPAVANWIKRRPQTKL
As to `CCCCc1nc(CN2CCC(NC(=O)c3ccc(-c4cccc(F)c4)nc3)CC2)c[nH]1` [Example 199, N-{1-[(2-Butyl-1H-imidazol-4-yl)methyl]piperidin-4-yl}-6-(3-fluorophenyl)nicotinamide], the 50% inhibitory concentration (IC50) worked out at 2.7 nM.

Take `O=C(NC1CCN(Cc2ccc3c(c2)OCCCO3)CC1)c1ccc(-c2cccc(F)c2)nc1` [Example 200, N-[1-(3,4-Dihydro-2H-15-benzodioxepin-7-ylmethyl)piperidin-4-yl]-6-(3-fluorophenyl)nicotinamide]: the IC50 is 1.61 nM.

Take `O=C(NC1CCN(Cc2ccc(-c3ccccn3)cc2)CC1)c1ccc(-c2cccc(F)c2)nc1` [Example 201, 6-(3-Fluorophenyl)-N-[1-(4-pyridin-2-ylbenzyl)piperidin-4-yl]nicotinamide]: the 50% inhibitory concentration (IC50) came out at 1.93 nM.

In the case of `Cc1ccc(CN2CCC(NC(=O)c3ccc(-c4cccc(F)c4)nc3)CC2)cc1F` [Example 202, N-[1-(3-Fluoro-4-methylbenzyl)piperidin-4-yl]-6-(3-fluorophenyl)nicotinamide], the half-inhibitory concentration (IC50) is 1.17 nM.

In the case of `CC(C)(C)OC(=O)NC1(CN2CCC(NC(=O)c3ccc(-c4cccc(F)c4)nc3)CC2)CC1` [Example 203, tert-Butyl(1-{[4-({[6-(3-fluorophenyl)pyridin-3-yl]carbonyl}amino)piperidin-1-yl]methyl}cyclopropyl)carbamate], the IC50 was found to be 2.17 nM.

Turning to `COc1ccc(CN2CCC(NC(=O)c3ccc(-c4cccc(F)c4)nc3)CC2)cc1Cl` [Example 204, N-[1-(3-Chloro-4-methoxybenzyl)piperidin-4-yl]-6-(3-fluorophenyl)nicotinamide], the 50% inhibitory concentration (IC50) stood at 0.067 nM.

Consider `COc1ccc(OC)c(CN2CCC(NC(=O)c3ccc(-c4cccc(F)c4)nc3)CC2)c1` [Example 205, N-[1-(2,5-Dimethoxybenzyl)piperidin-4-yl]-6-(3-fluorophenyl)nicotinamide], for which the half-inhibitory concentration (IC50) amounted to 0.238 nM.

Take `CC(C)Oc1cccc(CN2CCC(NC(=O)c3ccc(-c4cccc(F)c4)nc3)CC2)c1` [Example 206, 6-(3-Fluorophenyl)-N-[1-(3-isopropoxybenzyl)piperidin-4-yl]nicotinamide]: the IC50 came out at 1.84 nM.

`Cn1c(CN2CCC(NC(=O)c3ccc(-c4cccc(F)c4)nc3)CC2)cc2ccccc21` [Example 207, 6-(3-Fluorophenyl)-N-{1-[(1-methyl-1H-indol-2-yl)methyl]piperidin-4-yl}nicotinamide]: the half-maximal inhibitory concentration (IC50) was 1.59 nM.

As to `CCc1ncc(CN2CCC(NC(=O)c3ccc(-c4cccc(F)c4)nc3)CC2)[nH]1` [Example 208, N-{1-[(2-Ethyl-1H-imidazol-5-yl)methyl]piperidin-4-yl}-6-(3-fluorophenyl)nicotinamide], the half-inhibitory concentration (IC50) is 5.98 nM.

On to `Cc1nn(C(C)(C)C)c(C)c1CN1CCC(NC(=O)c2ccc(-c3cccc(F)c3)nc2)CC1` [Example 209, N-{1-[(1-tert-Butyl-3,5-dimethyl-1H-pyrazol-4-yl)methyl]piperidin-4-yl}-6-(3-fluorophenyl)nicotinamide], for which the half-inhibitory concentration (IC50) was found to be 1.37 nM.

On to `O=C(NC1CCN(Cc2ccc(-n3cccn3)cc2)CC1)c1ccc(-c2cccc(F)c2)nc1` [Example 210, 6-(3-Fluorophenyl)-N-{1-[4-(1H-pyrazol-1-yl)benzyl]piperidin-4-yl}nicotinamide], for which the concentration for half-maximal inhibition (IC50) worked out at 0.46 nM.

For `COc1cccc(F)c1CN1CCC(NC(=O)c2ccc(-c3cccc(F)c3)nc2)CC1` [Example 211, N-[1-(2-Fluoro-6-methoxybenzyl)piperidin-4-yl]-6-(3-fluorophenyl)nicotinamide], the IC50 is 0.453 nM.

Take `COc1ccc(CC2CC(NC(=O)c3ccc(-c4cccc(F)c4)nc3)CCN2)cc1OC` (stereo not drawn) [Example 212, N-[2-(3,4-Dimethoxybenzyl)piperidin-4-yl]-6-(3-fluorophenyl)nicotinamide]: the IC50 was found to be 1.4 nM.

On to `N#Cc1ccccc1CN1CCC(NC(=O)c2ccc(-c3cccc(F)c3)nc2)CC1` [Example 213, N-[1-(2-Cyanobenzyl)piperidin-4-yl]-6-(3-fluorophenyl)nicotinamide], for which the IC50 turned out to be 0.469 nM.

Take `CN(C)CCCOc1ccc(CN2CCC(NC(=O)c3ccc(-c4cccc(F)c4)nc3)CC2)cc1` [Example 214, N-(1-{4-[3-(Dimethylamino)propoxy]benzyl}piperidin-4-yl)-6-(3-fluorophenyl)nicotinamide]: the IC50 was 5.55 nM.

As for `Cn1ccnc1CN1CCC(NC(=O)c2ccc(-c3cccc(F)c3)nc2)CC1` [Example 215, 6-(3-Fluorophenyl)-N-{1-[(1-methyl-1H-imidazol-2-yl)methyl]piperidin-4-yl}nicotinamide], the IC50 came to 0.38 nM.

Take `O=C(NC1CCN(Cc2nccs2)CC1)c1ccc(-c2cccc(F)c2)nc1` [Example 216, 6-(3-Fluorophenyl)-N-[1-(1,3-thiazol-2-ylmethyl)piperidin-4-yl]nicotinamide]: the concentration for half-maximal inhibition (IC50) was 0.36 nM.

On to `CC(C)Oc1ccc(CN2CCC(NC(=O)c3ccc(-c4cccc(F)c4)nc3)CC2)cc1` [Example 217, 6-(3-Fluorophenyl)-N-[1-(4-isopropoxybenzyl)piperidin-4-yl]nicotinamide], for which the IC50 stood at 1.51 nM.

Regarding `O=C(NC1CCN(Cc2cc(F)c(F)cc2F)CC1)c1ccc(-c2cccc(F)c2)nc1` [Example 218, 6-(3-Fluorophenyl)-N-[1-(245-trifluorobenzyl)piperidin-4-yl]nicotinamide], the IC50 was 0.448 nM.

In the case of `Cn1c(CN2CCC(NC(=O)c3ccc(-c4cccc(F)c4)nc3)CC2)nc2ccccc21` [Example 219, 6-(3-Fluorophenyl)-N-{1-[(1-methyl-1H-benzimidazol-2-yl)methyl]piperidin-4-yl}nicotinamide], the IC50 is 0.749 nM.

In the case of `COc1ccc(CN2CCC(NC(=O)c3ccc(-c4cccc(F)c4)nc3)CC2)c(OC)c1` [Example 220, N-[1-(2,4-Dimethoxybenzyl)piperidin-4-yl]-6-(3-fluorophenyl)nicotinamide], the half-maximal inhibitory concentration (IC50) is 2.42 nM.

For the molecule `O=C(NC1CCN(CC2CC=CCC2)CC1)c1ccc(-c2cccc(F)c2)nc1` (stereo not drawn) [Example 221, N-[1-(Cyclohex-3-en-1-ylmethyl)piperidin-4-yl]-6-(3-fluorophenyl)nicotinamide], the IC50 is 0.446 nM.

`COc1ccc(CN2CCC(NC(=O)c3ccc(-c4cccc(F)c4)nc3)CC2)cc1` [Example 222, 6-(3-Fluorophenyl)-N-[1-(4-methoxybenzyl)piperidin-4-yl]nicotinamide]: the half-inhibitory concentration (IC50) came to 6.64 nM.

Turning to `O=C(NC1CCN(Cc2cc(Br)ccc2O)CC1)c1ccc(-c2cccc(F)c2)nc1` [Example 223, N-[1-(5-Bromo-2-hydroxybenzyl)piperidin-4-yl]-6-(3-fluorophenyl)nicotinamide], the 50% inhibitory concentration (IC50) was 0.928 nM.

In the case of `COc1cccc(CN2CCC(NC(=O)c3ccc(-c4cccc(F)c4)nc3)CC2)c1` [Example 224, 6-(3-Fluorophenyl)-N-[1-(3-methoxybenzyl)piperidin-4-yl]nicotinamide], the IC50 came out at 0.342 nM.

As for `O=C(NC1CCN(Cc2ccc(Cl)cc2)CC1)c1ccc(-c2cccc(F)c2)nc1` [Example 225, N-[1-(4-Chlorobenzyl)piperidin-4-yl]-6-(3-fluorophenyl)nicotinamide], the concentration for half-maximal inhibition (IC50) stood at 2.48 nM.

Regarding `COc1ccc2[nH]cc(CN3CCC(NC(=O)c4ccc(-c5cccc(F)c5)nc4)CC3)c2c1` [Example 226, 6-(3-Fluorophenyl)-N-{1-[(5-methoxy-1H-indol-3-yl)methyl]piperidin-4-yl}nicotinamide], the half-maximal inhibitory concentration (IC50) was found to be 1.42 nM.

Take `N#Cc1ccc(CN2CCC(NC(=O)c3ccc(-c4cccc(F)c4)nc3)CC2)cc1` [Example 227, N-[1-(4-Cyanobenzyl)piperidin-4-yl]-6-(3-fluorophenyl)nicotinamide]: the half-maximal inhibitory concentration (IC50) came out at 0.815 nM.

Regarding `CCOc1ccc(CN2CCC(NC(=O)c3ccc(-c4cccc(F)c4)nc3)CC2)cc1OCC` [Example 228, N-[1-(3,4-Diethoxybenzyl)piperidin-4-yl]-6-(3-fluorophenyl)nicotinamide], the half-inhibitory concentration (IC50) turned out to be 2.5 nM.

For `CCOc1ccccc1CN1CCC(NC(=O)c2ccc(-c3cccc(F)c3)nc2)CC1` [Example 229, N-[1-(2-Ethoxybenzyl)piperidin-4-yl]-6-(3-fluorophenyl)nicotinamide], the IC50 amounted to 0.509 nM.

Regarding `COc1cccc(CN2CCC(NC(=O)c3ccc(-c4cccc(F)c4)nc3)CC2)c1OC` [Example 230, N-[1-(2,3-Dimethoxybenzyl)piperidin-4-yl]-6-(3-fluorophenyl)nicotinamide], the 50% inhibitory concentration (IC50) was determined as 0.53 nM.

On to `COc1ccccc1CN1CCC(NC(=O)c2ccc(-c3cccc(F)c3)nc2)CC1` [Example 231, 6-(3-Fluorophenyl)-N-[1-(2-methoxybenzyl)piperidin-4-yl]nicotinamide], for which the half-maximal inhibitory concentration (IC50) was 0.552 nM.

As to `Cc1c(CN2CCC(NC(=O)c3ccc(-c4cccc(F)c4)nc3)CC2)c(=O)n(-c2ccccc2)n1C` [Example 232, N-{1-[(1,5-Dimethyl-3-oxo-2-phenyl-2,3-dihydro-1H-pyrazol-4-yl)methyl]piperidin-4-yl}-6-(3-fluorophenyl)nicotinamide], the IC50 came to 2.71 nM.

Turning to `O=C(NC1CCN(Cc2cccc(Cl)c2)CC1)c1ccc(-c2cccc(F)c2)nc1` [Example 233, N-[1-(3-Chlorobenzyl)piperidin-4-yl]-6-(3-fluorophenyl)nicotinamide], the half-maximal inhibitory concentration (IC50) turned out to be 0.352 nM.

With `CCOc1ccc(CN2CCC(NC(=O)c3ccc(-c4cccc(F)c4)nc3)CC2)cc1` [Example 234, N-[1-(4-Ethoxybenzyl)piperidin-4-yl]-6-(3-fluorophenyl)nicotinamide], the half-inhibitory concentration (IC50) came out at 1.65 nM.

Consider `COc1ccc(CN2CCC(NC(=O)c3ccc(-c4cccc(F)c4)nc3)CC2)cc1C` [Example 235, 6-(3-Fluorophenyl)-N-[1-(4-methoxy-3-methylbenzyl)piperidin-4-yl]nicotinamide], for which the IC50 turned out to be 1.98 nM.

For `O=C(NC1CCN(Cc2ccc(F)c(F)c2F)CC1)c1ccc(-c2cccc(F)c2)nc1` [Example 236, 6-(3-Fluorophenyl)-N-[1-(2,3,4-trifluorobenzyl)piperidin-4-yl]nicotinamide], the IC50 came out at 0.577 nM.

Turning to `O=C(NC1CCN(Cc2ccc(F)cc2F)CC1)c1ccc(-c2cccc(F)c2)nc1` [Example 237, N-[1-(2,4-Difluorobenzyl)piperidin-4-yl]-6-(3-fluorophenyl)nicotinamide], the IC50 amounted to 0.698 nM.

Values taken from patent US7902373B2 (Pfizer Inc, priority 2006, dated 2011).
